PMC7999199, “Novel Cationic Meso-Arylporphyrins and Their Antiviral Activity against HSV-1” (Pharmaceuticals, 2021)
Where two headings read alike, the source gives them in different places.

How the values were obtained:
[1] = Vero cell viability, MTT test, 72 h; type: cell-based, African green monkey; settings: African green monkey, Vero cells, MTT; for viability at 72 h, 0.39 µM: 0.39 µM/L; for viability at 72 h, 0.39 µM / viability at 72 h, 0.78 µM / viability at 72 h, 1.56 µM / viability at 72 h, 3.13 µM / viability at 72 h, 6.25 µM / viability at 72 h, 12.5 µM / viability at 72 h, 25 µM / viability at 72 h, 50 µM / viability at 72 h, 100 µM: Vero, 3 days, read-out: Viability % ±s.d.; for viability at 72 h, 0.78 µM: 0.78 µM/L; for viability at 72 h, 1.56 µM: 1.56 µM/L; for viability at 72 h, 3.13 µM: 3.13 µM/L; for viability at 72 h, 6.25 µM: 6.25 µM/L; for viability at 72 h, 12.5 µM: 12.50 µM/L; for viability at 72 h, 25 µM: 25 µM/L; for viability at 72 h, 50 µM: 50 µM/L; for viability at 72 h, 100 µM: 100 µM/L; for CC50 at 72 h: dissolved in PBS
Method: (§1) Before testing antiviral activity, the effect of porphyrins dissolved in PBS and Pluronic F-127 on the viability of Vero cells was evaluated. Cells were incubated for 72 h using different concentrations of porphyrins (0.39–100 μM). Viability was assessed using the MTT test (Figure S13, Table S1, Supplementary Information). The viability of Vero cells depends on the porphyrins’ structure and formulation.
(§2) Cell viability was assessed by MTT reduction assay. Briefly, confluent monolayer Vero cells in 96-well plates (15000 cells/well) were incubated for 72 h with different concentrations of the compounds ranging from 0.39 µM to 100 µM in DMEM-1% FCS at 36.8 °C in 5% CO2 atmosphere. Next, cells were incubated for 1 h with 1.0 mg/mL of 3-(4,5-dimethylthiazol-2-y1)-2,5-diphenyltetrazolium bromide (MTT, PanEco, Moscow, Russia) at 36.8 °C, and then the solution was removed, and precipitated formazan was diluted in DMSO (PanEco, Moscow, Russia). The solution was read on a spectrophotometer at 540 nm. For each concentration, the average cell viability was calculated from the data of three experiments with three replicates each and was expressed as a percentage compared to the untreated cells (100%).
(§3) Table s1. Vero cell viability after exposure to 3a, 3b, TMEPyP compounds dissolved in PBS and Pluronic F-127. Different concen-
(§4) trations of compounds were applied to the cell monolayer and after incubation for 3 days, the number of living cells was calculated
(§5) in the MTT test. Each point represents the mean ± standard deviation of three experiments with […] each. n.d. –not done.
(§6) Compound Concentration, µM/L Viability % ±s.d.

Vero cells = test: Vero cell viability, MTT test, 72 h; type: cell-based, African green monkey; settings: Vero cells; for CC50: Pluronic F-127 (F127) micellar formulation, MTT, 72 h
Method: as §1, §2, §3, §4, §5, §6

[2] = n-Octanol/PBS partition coefficient; type: physicochemical; settings: 1-n-octanol/PBS, pH 7; read-out: LogP (LogPow, 1-n-octanol/water partition coefficient)
Method: The normalized UV-vis spectra, as well as the fluorescence spectra in DMSO and ethanol, are shown in Figures S1 and S2 (Supplementary Information). Fluorescence quantum yields were measured as compared with 5,10,15,20-tetrakisphenylporphyrin (TPP) (ΦF = 0.11) and ZnTPP (ΦF = 0.033). For free-base compounds 3a,b fluorescence quantum yields were similar at ca. 0.13 in DMSO and ca. 0.14, respectively. Octanol-water distribution coefficients were calculated using 1-n-octanol and phosphate-buffered saline (PBS), according to the method described in [53]. […] As expected, compound 3a was more hydrophilic (LogPow = −4.86) than 3b (LogPow = −4.6). Such an effect can be associated with the increase in the number of methylene spacers in compound 3b.
The distribution coefficient was measured using 1-n-octanol and phosphate buffered saline (PBS), which were presaturated with each other by the described method. […] The absorption of each layer was measured spectrophotometrically in the region of the Soret band. Partition coefficients were calculated as the ratio between absorption in the Soret band of photosensitizers in organic and aqueous phase and the dilution factors for the organic and aqueous layers, according to the aforementioned method.

[3] = Micelle size of Pluronic F-127 formulations by dynamic light scattering; type: physicochemical; settings: Pluronic F-127 micelles, concentration 3·10^−6 M
Method: The size of obtained micelles for the compounds 3a,b was determined by the dynamic light scattering (DLS) method. The micelle size for compounds 3a,b was 17.53 nm and 14.69 nm, respectively, at concentrations of 3·10^−6 M (Figure 4a,b). It has previously been reported that a similar micelle size increased the efficiency and circulation of the encapsulated drug in the blood due to the small scale, which avoided the capture of nanoparticles by the reticular endothelial system.
NMR (^1H and ^13C) spectra of the test solutions in CDCl3 or (CD3OD) were recorded on a Bruker MSL-300 pulse Fourier transform spectrometer (Bruker, Billerica, MA, USA) at frequencies of 300.3 and 75.49 MHz, respectively, with internal deuterium stabilization. Tetramethylsilane was used as an external standard. IR spectra (4000–500 cm^–1) were recorded on Infralyum FT 02 Fourier spectrometer (Lumex Instruments Research and Production Company, Moscow, Russia) with a resolution of 1 cm^−1. Samples were prepared as KBr tablets. Dynamic light scattering was measured using Malvern Zetasizer Nano ZS (Malvern, United Kingdom). […] Mass spectra were recorded using an 1100 LCMSD liquid chromatograph (Agilent Technologies, Santa Clara, CA, USA) equipped with a mass spectrometric chemical ionization detector at atmospheric pressure (HIAD, APCI, ESI) and with a UV spectrophotometric detector (DAD). […]

SMILES	viability at 72 h, 0.39 µM ([1]; +F127 (Pluronic F-127)) [%]	viability at 72 h, 0.78 µM ([1]; +F127 (Pluronic F-127)) [%]	viability at 72 h, 1.56 µM ([1]; +F127 (Pluronic F-127)) [%]	viability at 72 h, 3.13 µM ([1]; +F127 (Pluronic F-127)) [%]	viability at 72 h, 6.25 µM ([1]; +F127 (Pluronic F-127)) [%]	viability at 72 h, 12.5 µM ([1]; +F127 (Pluronic F-127)) [%]	viability at 72 h, 25 µM ([1]; +F127 (Pluronic F-127)) [%]	viability at 72 h, 50 µM ([1]; +F127 (Pluronic F-127)) [%]	viability at 72 h, 100 µM ([1]; +F127 (Pluronic F-127)) [%]	viability at 72 h, 3.13 µM ([1]; -F127 (PBS)) [%]	viability at 72 h, 6.25 µM ([1]; -F127 (PBS)) [%]	viability at 72 h, 12.5 µM ([1]; -F127 (PBS)) [%]	viability at 72 h, 25 µM ([1]; -F127 (PBS)) [%]	viability at 72 h, 50 µM ([1]; -F127 (PBS)) [%]	viability at 72 h, 100 µM ([1]; -F127 (PBS)) [%]	CC50 at 72 h [1] [µM]	CC50 (Vero cells) [µM]	also measured
O=C(CC[n+]1ccccc1)Oc1ccc(-c2c3nc(c(-c4ccc(OC(=O)CC[n+]5ccccc5)cc4)c4ccc([nH]4)c(-c4ccc(OC(=O)CC[n+]5ccccc5)cc4)c4nc(c(-c5ccc(OC(=O)CC[n+]6ccccc6)cc5)c5ccc2[nH]5)C=C4)C=C3)cc1 [3a]	93 ± 4.6	99.2 ± 4.2	95.6 ± 4.2	90.8 ± 2.3	90.3 ± 7.8	91.7 ± 2.8	89.1 ± 4.1	92.9 ± 2	80.4 ± 1.8	106 ± 4.5	105 ± 8.7	94.7 ± 5.1	90.9 ± 10	91.9 ± 2.2	76.8 ± 6.9	> 100	> 100	viability at 72 h, 0.39 µM ([1]; -F127 (PBS)): 94.6 ± 2.9%; viability at 72 h, 0.78 µM ([1]; -F127 (PBS)): 102 ± 4.2%; viability at 72 h, 1.56 µM ([1]; -F127 (PBS)): 108 ± 15.4%; toxic concentration (Vero cells; used to choose concentrations for the virucidal test): > 100 µM; logP [2]: -4.86; micelle size (DLS) [3]: 17.53 nm
C[n+]1ccc(-c2c3nc(c(-c4cc[n+](C)cc4)c4ccc([nH]4)c(-c4cc[n+](C)cc4)c4nc(c(-c5cc[n+](C)cc5)c5ccc2[nH]5)C=C4)C=C3)cc1 [TMePyP, 5,10,15,20-tetrakis(1-methyl-4-pyridinio)porphyrin tetraiodide, reference compound]	82.9 ± 5.4	79.9 ± 2.3	90.2 ± 9.7	95.2 ± 6	90.4 ± 2.7	83 ± 8.6	95.2 ± 3.2	114 ± 6.2	104 ± 1.2	101 ± 5	98.5 ± 5	97.4 ± 4.6	95.3 ± 5.3	93.7 ± 5.5	89.6 ± 6.8	> 100	> 100	
